Test results as given in patent US20220380317A1, “COMPOUNDS HAVING ANTIMALARIAL ACTIVITY” (NANYANG TECHNOLOGICAL UNIVERSITY, priority 2019, published 2022).
Like-named read-outs stand apart in the source and are kept apart here.

Assays:
P. falciparum = test: in vitro P. falciparum growth inhibition / dose response assay (Hoechst 33342 FACS read out); format: cell-based, Plasmodium falciparum; details: for IC50: in vitro, FIG. 7B, read-out: affinity (IC50 values, in vitro anti-parasitic activity)
Experimental: For the in vitro P. falciparum culture, P. falciparum 3D7, Dd2, K1, T994, W2, and W2mef cell lines were obtained from Malaria Research and Reference Reagent Resource Center (MR4), BEI Resources. Artemisinin-resistant and -sensitive parasite field isolates from Ratanakiri, Cambodia were obtained by request from the Tracking Resistance to Artemisinin Collaboration (TRAC). In vitro parasite culture was performed as described by Maier and Rug (Methods Mol Bio 2013; 923:3-15). Briefly, cultures were maintained with RPMI medium supplemented with Albumax II; […] RPMI-1640 (Gibco, Life Technologies), 2.5 g/L Albumax II (Gibco, Life Technologies), 2.3 g/L Sodium Bicarbonate (Sigma-Aldrich), 50 mg/L Hypoxanthine (Sigma-Aldrich), 10 mg/L Gentamicin Sulphate (Gibco, Life Technologies), in 2-3% haematocrit human RBCs collected via patient donation at National University Hospital, Singapore. Cultures were maintained with a special mixed gas of 3% O2, 5% CO2, balanced with N2 (SOXAL, Air Liquide, Singapore). For cultures grown in plate format, plates were kept in a sealed bag filled with mixed gas. Parasitemia and parasite stages were checked by microscopy of blood smears fixed in Methanol (Merck), stained in Giemsa (Sigma-Aldrich) in 1× Tris-Base, Acetic Acid, EDTA (TAE) buffer (analytical grade, Fischer US).
Synchronization of ring stage parasites (0-20 hour IDC) was done by incubating packed RBC culture with 5% (w/v) D-Sorbitol (Sigma-Aldrich) at 37° C. for 20 minutes. Cultures were washed with incomplete RPMI (iRPMI), 2,200 rpm, 3 minutes, brake 1 to remove sorbitol and cell debris. Late stage parasites (30-48 hour IDC) were isolated using a 68% Percoll (MP Biomedicals) gradient prepared with 1× Phosphate Buffer Saline (PBS) and iRPMI. Packed parasite cultures were diluted with iRPMI 1:5, then layer carefully atop of the 68% Percoll gradient in a 15 mL Falcon tube. Tubes were spun at 2,200 rpm for 20 minutes, brake 0. […]
In a mid-throughput compound library screen, compounds were screened for antiparasitic activity by growth rate over a duration of 60 hrs (slightly over one IDC). ˜1% parasitemia of 0-3hpi ring stage culture in 2% haematocrit were treated with 10 μM of library compound (0.1% final DMSO concentration), and seeded into 96well flat bottom plates. […] After 60 hr of treatment (to allow ring stages to develop a more defined morphology), taken for Fluorescent-activated Cell Sorting (FACS) read out.
Assay read out was done by staining with Hoechst 33342 (Excitation 350 nm, Emission 461 nm; Molecular Probes, Life Technologies), a cell permeable DNA staining dye. […] Cells were read via a High Throughput Sampler (HTS)-coupled FACS machine (BD Biosciences) in the UV laser excitation channel (Excitation 355 nm). […]

P. berghei [1] = test: in vivo four-day suppression test; design: species or system Balb/c mice; details: for dose required to achieve >95% killing: once daily Days 1 to 4, parasitemia measured on Day 5
Experimental: Four-week-old Balb/c mice were challenged with […] P. berghei parasites intravenously on Day 0. […] Parasitemia was measured on Day 5, and the following formula was used to measure in vivo activity;

[2] = tested on: lung, kidney, and liver epithelial cells; test: toxicity in epithelial cells; format: cell-based; details: at 1000-folds in excess of the therapeutic dose
P. berghei [3] = test: in vivo growth suppression test in P. berghei BALB/c mice model; details: 30 mg/kg intraperitoneally once daily for four days
Experimental: In a next step, the compound's in vitro activity was validated in vivo in a P. berghei BALB/c mice model. A growth suppression test was done by intraperitoneally infecting 4-week old Balb/c mice with GFP-expressing parasites, and allowing the parasitemia to rise to 3-4%. Subsequently, different doses of the compound were administered intraperitoneally once daily over four days.
Tail snips were done once daily to obtain blood samples for the measurement of parasitemia by FACS.

[4] = target: T1, Falcilysin (FLN, PlasmoDB geneID: PF3D7_1360800) (Plasmodium falciparum, UniProt Q76NL8); test: cell-free enzymatic inhibition assay with recombinant FLN and fluorescent-quencher peptide substrate; format: biochemical; details: 1 mM, fluorescence at 490 nm over 7 min
T1 construct: gift from Zbynek Bozdech, School of Biological Sciences, NTU
Experimental: In order to validate the results obtained from the CETSA screen, a cell-free enzymatic inhibition assay using recombinant-FLN and a fluorescent-quencher tagged 10-peptide substrate of FLN was employed. Recombinant FLN and the Dabcyl-[…] (SEQ ID NO:3)-Edans fluorescent-quencher peptides were a gift from Zbynek Bozdech of School of Biological Sciences, NTU. Briefly, recombinant FLN at a final concentration of 0.3 μg/ml in assay buffer (50 mM Bis-tris, pH 7.2) was prepared. […] Just prior to the read out, recombinant FLN in assay buffer was added. VO was determined by monitoring fluorescence (Aex=340 nm, Aem=490) over 7 min on a Tecan Infinite M200 Pro plate reader. Assays were done with two technical replicates each. Data of three biological replicates were averaged and plot on Microsoft excel to compare the slope of the fluorescence signal.

T1 sequence (Q76NL8 whole entry): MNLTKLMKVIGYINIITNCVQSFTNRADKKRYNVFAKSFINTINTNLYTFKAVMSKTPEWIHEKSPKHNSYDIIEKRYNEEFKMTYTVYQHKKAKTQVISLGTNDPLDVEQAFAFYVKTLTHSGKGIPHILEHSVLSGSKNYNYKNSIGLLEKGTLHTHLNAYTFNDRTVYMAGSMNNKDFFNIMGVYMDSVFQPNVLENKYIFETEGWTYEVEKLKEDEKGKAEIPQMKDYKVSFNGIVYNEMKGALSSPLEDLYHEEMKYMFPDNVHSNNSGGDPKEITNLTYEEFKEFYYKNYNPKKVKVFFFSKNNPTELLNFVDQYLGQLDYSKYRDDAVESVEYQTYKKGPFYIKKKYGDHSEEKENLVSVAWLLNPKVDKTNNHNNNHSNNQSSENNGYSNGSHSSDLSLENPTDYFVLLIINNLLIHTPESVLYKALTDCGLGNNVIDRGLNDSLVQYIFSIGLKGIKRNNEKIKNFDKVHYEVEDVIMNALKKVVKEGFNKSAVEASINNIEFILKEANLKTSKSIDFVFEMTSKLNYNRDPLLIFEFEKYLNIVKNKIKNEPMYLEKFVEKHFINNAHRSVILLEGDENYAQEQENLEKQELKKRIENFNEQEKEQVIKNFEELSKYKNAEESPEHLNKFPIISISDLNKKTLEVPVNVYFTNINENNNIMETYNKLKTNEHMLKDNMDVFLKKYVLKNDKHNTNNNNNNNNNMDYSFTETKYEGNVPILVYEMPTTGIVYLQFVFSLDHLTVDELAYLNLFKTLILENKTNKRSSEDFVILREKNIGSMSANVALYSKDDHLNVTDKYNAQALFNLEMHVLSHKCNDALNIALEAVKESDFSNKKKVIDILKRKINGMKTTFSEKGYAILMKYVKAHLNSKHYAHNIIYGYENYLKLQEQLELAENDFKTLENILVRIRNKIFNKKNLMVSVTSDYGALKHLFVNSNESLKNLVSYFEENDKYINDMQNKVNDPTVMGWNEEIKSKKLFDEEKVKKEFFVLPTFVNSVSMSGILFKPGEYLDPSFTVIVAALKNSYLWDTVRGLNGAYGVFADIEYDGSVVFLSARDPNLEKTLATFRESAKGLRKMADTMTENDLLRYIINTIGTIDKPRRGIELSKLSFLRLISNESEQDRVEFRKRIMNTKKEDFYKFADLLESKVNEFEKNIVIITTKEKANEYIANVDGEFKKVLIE

1-({3-[(4,5-Diphenyl-1-imidazolinyl)methyl]-5-methoxyphenyl}methyl)-4,5-diphenylimidazoline [SAR 13]
in vitro potency compared with A1 (P. falciparum): more potent | in vivo activity in 4-day suppressive test (P. berghei [1]; 20 mg/kg): highest activity | dose required to achieve >95% killing (P. berghei [1]): 20 mg/kg

1-({6-[(4,5-Diphenyl-1-imidazolinyl)methyl]-2-pyridyl}methyl)-4,5-diphenylimidazoline [SAR 14]
in vitro potency compared with A1 (P. falciparum): more potent | dose required to achieve >95% killing (P. berghei [1]): 30 mg/kg

C1=NC(c2ccccc2)C(c2ccccc2)N1Cc1cccc(CN2C=NC(c3ccccc3)C2c2ccccc2)c1 (centres unmarked) [A1, 1-({m-[(4,5-Diphenyl-1-imidazolinyl)methyl]phenyl}methyl)-4,5-diphenylimidazoline]
IC50 (P. falciparum; Plasmodium falciparum): 120 nM | dose required to achieve >95% killing (P. berghei [1]): 30 mg/kg | toxicity [2]: Toxicity was not observed

C[C@@H]1CC[C@H]2[C@@H](C)C(=O)O[C@@H]3O[C@@]4(C)CC[C@@H]1[C@]32OO4 [artemisinin]
reduction of parasitemia (P. berghei [3]): unable to further reduce parasitemia beyond day 3

C[C@@H]1C[C@@H]([C@H](O)CC2CC(=O)NC(=O)C2)C(=O)[C@@H](C)C1 [cyclohexamine]
proteolytic activity of FLN [4]: No inhibition of proteolytic activity

C1=N[C@@H](c2ccccc2)[C@H](c2ccccc2)N1Cc1cccc(CN2C=N[C@@H](c3ccccc3)[C@@H]2c2ccccc2)c1 [imidazole variant, (4S,5S)-1-[(m-{[(4S,5S)-4,5-Diphenyl-1-imidazolyl]methyl}phenyl)methyl]-4,5-diphenylimidazole]
IC50 (P. falciparum): 4690 nM
